Source: PMC4789278, “Pharmacological inhibition of LSD1 for the treatment of MLL-rearranged leukemia” (Journal of Hematology & Oncology, 2016)

Tests used:
[1] = design: method as in PMID 22754608; conditions: mice; cited from earlier work
[2] = biological target: T1, recombinant human LSD1 (Homo sapiens, UniProt O60341); test: LSD1 enzyme inhibition assay (HRP/Amplex red); format: biochemical
T1 construct: Human LSD1 catalytic domain (172-833) was cloned; made in house; host or cells: E. coli BL21-CodonPlus (Agilent)
Procedure: The LSD1 inhibition assay was performed with the reaction rate (i.e., amount of the product H2O2, Additional file 1: Figure S2) being quantitatively determined by adding horseradish peroxidase (HRP) and a HRP fluorescence substrate Amplex red.
Human LSD1 catalytic domain (172-833) was cloned and inserted into pGEX-KG vector. The correctness of insert was verified by sequencing. BL21-CodonPlus strain (Agilent) was transformed with the pGEX-KG-LSD1 plasmid and cultured at 37 °C in LB medium containing ampicillin (50 μg/mL) and chloramphenicol (34 μg/mL). Upon reaching an optical density of ~0.9 at 600 nm, LSD1 expression was induced by adding 0.2 mM isopropylthiogalactoside at 25 °C for 20 h. Cells were harvested, lysed, and centrifuged at 20,000 rpm for 20 min, and the supernatant was collected and subjected to an affinity column chromatography using the glutathione sepharose resin.
The inhibition assay for the recombinant LSD1 was performed using a published protocol, with the reaction rate (i.e., amount of the product H2O2) being quantitatively determined by adding HRP and a HRP fluorescence substrate Amplex red. […] The total volume of the reaction mixture is 60 μL. After 20 min, 60-μL solution containing HRP (0.01 unit) and Amplex red (80 μM) was added and the fluorescence of each well was determined using a Beckman DTX-880 microplate reader (excitation at 535 and emission at 595 nm). Data were imported into Prism 5.0 (GraphPad), and the IC50 values were calculated by using the sigmoidal dose response curve fitting in the software. The reported IC50s were the mean values of at least three independent experiments.

IC50 [2] [nM]	Compound	half-life in the plasma [1]
–	CN1CCN(C(=O)CNC2CC2c2ccc(OCc3ccccc3)cc2)CC1 (centres unmarked) [Compound 1]	~ 1 h
77	CN1CCN(C(=O)CNC2CC2c2ccc(-c3ccc(F)nc3)cc2)CC1 (centres unmarked) [Compound 2]	–
